Measurements published in patent publication US20260297542A1, “HERBICIDE RESISTANT PLANTS” (SYNGENTA CROP PROTECTION AG, priority 2023, published 2026).
Substitutions are numbered along the chain they refer to.

Experiments:
[1] = molecular target: T1, His-TEV-AtPP01 ΔcTP (SEQ ID NO: 370) (Arabidopsis thaliana, UniProt P55826); test: activity rate of PPO variant in in vitro assay; format: biochemical; details: role: substrate; 1 uM protoporphyrinogen IX; no inhibitor
T1 construct: with cTPs removed; made in house; host or cells: E. coli BL21 (DE3), His GraviTrap, partially purified
T1 sequence (P55826 with tags, fused parts or gaps): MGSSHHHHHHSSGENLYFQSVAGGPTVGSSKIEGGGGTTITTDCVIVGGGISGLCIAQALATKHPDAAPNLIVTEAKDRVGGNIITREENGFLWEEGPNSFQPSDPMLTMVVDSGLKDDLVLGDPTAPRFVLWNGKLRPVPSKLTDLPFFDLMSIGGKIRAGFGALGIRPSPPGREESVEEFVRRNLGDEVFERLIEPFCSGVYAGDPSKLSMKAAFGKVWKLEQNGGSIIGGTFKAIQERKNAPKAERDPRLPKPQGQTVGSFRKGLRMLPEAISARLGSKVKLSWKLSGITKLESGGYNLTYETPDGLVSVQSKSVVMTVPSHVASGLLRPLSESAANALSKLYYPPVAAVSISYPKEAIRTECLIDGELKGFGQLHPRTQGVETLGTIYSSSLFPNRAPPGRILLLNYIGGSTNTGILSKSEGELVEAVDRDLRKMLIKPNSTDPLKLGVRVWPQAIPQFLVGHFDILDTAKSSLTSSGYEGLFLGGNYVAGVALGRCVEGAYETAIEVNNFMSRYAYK
Excerpt: (§1) A pET24 plasmid containing a DNA sequence encoding variants of AtPPO1 derived from Arabidopsis thaliana with cTPs removed and both a 6×His tag and TEV protease cleavage tag added at the N-terminus, codon-optimised for expression in E. coli, and under control of a T7 promoter, was synthesised by Twist Bioscience. The following variants were synthesised: WT AtPPO1 (SEQ ID NO: 370), AtPPO1 L479M (SEQ ID NO: 371), AtPPO1 L479N (SEQ ID NO: 372), AtPPO1 S305L Y426V (SEQ ID NO: 374) and AtPPO1 S305L Y426V L479M (SEQ ID NO: 373). This plasmid was expressed in E. coli BL21 (DE3) with 50 μg/mL kanamycin selection. 10 mL of overnight cultures grown at 37° C. were used to inoculate 1 L AIM (AIM-Terrific Broth Base including Trace elements, Formedium) in 2 L shake flasks. Cultures were grown at 37° C., 200 rpm for 3 hours and then overnight at 26° C. Cells were harvested centrifugation. 5-15 g of cell pellet was lysed in and resuspended in ratio of 1:1.5 in lysis buffer (20 mM Tris pH8, 500 mM sodium chloride, 10% glycerol, 1× complete Protease EDTA-free Inhibitor Tablet (Roche), 10 mM imidazole). The resuspension was sonicated at 75% using 10 cycles of 30 seconds, 40 seconds off. After sonication Triton X-100 was added to the lysates at a final concentration of 0.5%. The lysates were centrifuged at 20,000 rpm for 25 min at 4° C. Cleared lysates were loaded on His GraviTrap (Cytiva) columns, washed with 20 mL of lysis buffer and eluted in elution buffer (20 mM Tris pH8, 500 mM sodium chloride, 10% glycerol, 200 mM imidazole, 0.03% (v/v) Triton X-100). The eluate was desalted on a PD10 column and 2.5-3.2 mL was collected. Protein concentration was measured and calculated using the absorbance at 280 nm. Extracts were diluted 1 in 4 and 10 uL was analysed by SDS PAGE.
(§2) Partially purified Protoporphyrinogen Oxidase enzymes were assayed for activity using fluorescence adapted from the method of Shepherd & Dailey (Anal Biochem. 2005 344(1) 115-121). The assay was performed in black 384 well plates with a clear bottom and the total volume of the reaction mixture was 91 ul. The final assay mixture contained 100 mM K2HPO4 pH7.2, 1 mM Na2EDTA, 5 mM DTT, 20% glycerol (v/v), 0.05% Tween 20 (v/v), 1.1% DMSO (v/v), 1 uM protoporphyrinogen IX and 1.5 nM enzyme. Compounds were dissolved in DMSO at 1 mM and a 4-fold serial dilution carried out to give 8 rates. 1 ul was added to the assay mixture. This gave final compound concentrations of 11, 2.7, 0.69, 0.17, 0.04, 0.01, 0.002, 0.0007 uM. Enzyme and inhibitor were preincubated for 5 minutes prior to starting the reaction with the addition of the substrate. […] IC50s were calculated using GraphPad Prism 7.05 nonlinear regression (Table 6). Each compound was tested in duplicate.

[2] = molecular target: T2, His-TEV-AtPP01 ΔcTP L479N (SEQ ID NO: 372) (Arabidopsis thaliana, UniProt P55826, L479N); test: activity rate of PPO variant in in vitro assay; format: biochemical; details: role: substrate; 1 uM protoporphyrinogen IX; no inhibitor
T2 construct: with cTPs removed; made in house; host or cells: E. coli BL21 (DE3), His GraviTrap, partially purified
T2 sequence (P55826 with tags, fused parts or gaps L479N): T1 sequence (P55826 with tags, fused parts or gaps) with L464N
Excerpt: as §1, §2

C=Cc1c2[nH]c(c1C)Cc1[nH]c(c(CCC(=O)O)c1C)Cc1[nH]c(c(C)c1CCC(=O)O)Cc1[nH]c(c(C)c1C=C)C2 [protoporphyrinogen IX]
Rate [1]: 5.1 rfu second^−1 pmole^−1 | Rate [2]: 13.2 rfu second^−1 pmole^−1
